Data: patent US12509453B2, “BRM/BRG1 inhibitors and uses thereof” (Foghorn Therapeutics Inc., priority 2019, dated 2025)

Tests used:
[1] = target: T1, BRG-1 (Homo sapiens, UniProt P51532); experiment: ATPase catalytic activity assay (ADP-Glo), BRG-1; assay type: biochemical; settings: 30 nM BRG-1, 400 μM ATP; for IC50: 20 nM salmon sperm DNA, read-out: BRG1 IP50 (μM)*; for Emax: read-out: BRG1 Max % Inhibition
T1 construct: made in house; host or cells: High Five insect cells
Method: (§1) The ATPase catalytic activity of BRM or BRG-1 was measured by the in vitro biochemical assay using ADP-Glo™ (Promega, V9102). The ADP-Glo™ kinase assay is performed in two steps once the reaction is complete. The first step is to deplete any unconsumed ATP in the reaction. The second step is to convert the reaction product ADP to ATP, which will be utilized by the luciferase to generate luminesce and be detected by a luminescence reader, such as Envision.
(§2) The assay reaction mixture (10 μL) contains 30 nM of BRM or BRG-1, 20 nM salmon sperm DNA (from Invitrogen, UltraPure™ Salmon Sperm DNA Solution, cat #15632011), and 400 μM of ATP in the ATPase assay buffer, which comprises of 20 mM Tris, pH 8, 20 mM MgCl2, 50 mM NaCl, 0.1% Tween-20, and 1 mM fresh DTT (Pierce™ DTT (Dithiothreitol), cat #20290). The reaction is initiated by the addition of the 2.5 μL ATPase solution to 2.5 μL ATP/DNA solution on low volume white Proxiplate-384 plus plate (PerkinElmer,cat #6008280) and incubates at room temperature for 1 hour. Then following addition of 5 μL of ADP-Glo™ Reagent provided in the kit, the reaction incubates at room temperature for 40 minutes. Then 10 μL of Kinase Detection Reagent provided in the kit is added to convert ADP to ATP, and the reaction incubates at room temperature for 60 minutes. Finally, luminescence measurement is collected with a plate-reading luminometer, such as Envision.
as §1, with “The” for “The ATPase catalytic activity of BRM or BRG-1 was measured by the in vitro biochemical assay using ADP-Glo™ (Promega, V9102). The”
as §2, with “BRG1,” for “BRG-1,”

[2] = target: T2, BRM (Homo sapiens, UniProt P51531); experiment: ATPase catalytic activity assay (ADP-Glo), BRM; assay type: biochemical; settings: 30 nM BRM, 400 μM ATP; for IC50: 20 nM salmon sperm DNA, read-out: BRM IP50 (μM)*
T2 construct: made in house; host or cells: High Five insect cells
Method: as §1, §2
as §1, with “The” for “The ATPase catalytic activity of BRM or BRG-1 was measured by the in vitro biochemical assay using ADP-Glo™ (Promega, V9102). The”
as §2, with “BRG1,” for “BRG-1,”

T1 sequence (P51532 whole entry): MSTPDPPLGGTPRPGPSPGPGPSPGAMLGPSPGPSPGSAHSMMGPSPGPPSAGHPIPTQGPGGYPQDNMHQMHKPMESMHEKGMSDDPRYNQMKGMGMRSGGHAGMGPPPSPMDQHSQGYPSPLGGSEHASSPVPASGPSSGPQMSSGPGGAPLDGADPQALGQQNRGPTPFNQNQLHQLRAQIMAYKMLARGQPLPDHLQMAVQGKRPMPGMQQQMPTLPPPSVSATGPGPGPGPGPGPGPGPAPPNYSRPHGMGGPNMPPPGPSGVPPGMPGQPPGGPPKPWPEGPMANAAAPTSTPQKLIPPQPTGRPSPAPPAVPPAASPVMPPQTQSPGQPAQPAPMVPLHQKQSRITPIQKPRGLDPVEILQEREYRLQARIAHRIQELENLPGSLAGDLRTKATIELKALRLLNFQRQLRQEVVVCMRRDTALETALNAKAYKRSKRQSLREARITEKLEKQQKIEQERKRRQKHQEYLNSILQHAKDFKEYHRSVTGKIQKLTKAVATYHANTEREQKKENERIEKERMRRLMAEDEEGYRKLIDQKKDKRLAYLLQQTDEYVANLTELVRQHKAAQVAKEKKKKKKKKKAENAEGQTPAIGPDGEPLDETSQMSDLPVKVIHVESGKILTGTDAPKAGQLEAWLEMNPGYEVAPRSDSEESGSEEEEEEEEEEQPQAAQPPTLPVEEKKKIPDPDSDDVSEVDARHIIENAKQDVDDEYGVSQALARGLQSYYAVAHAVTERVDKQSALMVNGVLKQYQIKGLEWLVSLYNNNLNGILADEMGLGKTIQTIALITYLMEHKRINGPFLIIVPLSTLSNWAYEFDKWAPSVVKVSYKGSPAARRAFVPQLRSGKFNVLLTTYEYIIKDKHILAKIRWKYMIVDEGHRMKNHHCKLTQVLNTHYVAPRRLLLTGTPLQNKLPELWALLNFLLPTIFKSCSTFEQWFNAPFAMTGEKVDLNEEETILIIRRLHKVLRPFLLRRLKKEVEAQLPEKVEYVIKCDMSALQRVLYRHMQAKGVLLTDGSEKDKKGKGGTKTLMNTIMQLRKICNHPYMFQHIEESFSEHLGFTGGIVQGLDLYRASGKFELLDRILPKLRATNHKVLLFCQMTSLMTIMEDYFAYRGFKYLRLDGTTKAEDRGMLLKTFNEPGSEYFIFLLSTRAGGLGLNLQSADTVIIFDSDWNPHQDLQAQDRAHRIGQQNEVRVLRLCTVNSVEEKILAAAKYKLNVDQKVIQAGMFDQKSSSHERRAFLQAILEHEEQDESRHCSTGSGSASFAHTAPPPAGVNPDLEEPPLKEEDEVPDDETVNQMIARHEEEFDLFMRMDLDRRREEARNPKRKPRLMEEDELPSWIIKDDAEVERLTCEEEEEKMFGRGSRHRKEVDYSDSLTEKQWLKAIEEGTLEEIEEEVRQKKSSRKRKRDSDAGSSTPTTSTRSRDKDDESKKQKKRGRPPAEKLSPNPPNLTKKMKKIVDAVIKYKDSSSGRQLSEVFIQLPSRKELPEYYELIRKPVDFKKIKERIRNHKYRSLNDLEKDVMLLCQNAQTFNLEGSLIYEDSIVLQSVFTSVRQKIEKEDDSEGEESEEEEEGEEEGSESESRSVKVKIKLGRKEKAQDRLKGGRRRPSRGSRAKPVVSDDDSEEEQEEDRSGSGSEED
T2 sequence (P51531 whole entry): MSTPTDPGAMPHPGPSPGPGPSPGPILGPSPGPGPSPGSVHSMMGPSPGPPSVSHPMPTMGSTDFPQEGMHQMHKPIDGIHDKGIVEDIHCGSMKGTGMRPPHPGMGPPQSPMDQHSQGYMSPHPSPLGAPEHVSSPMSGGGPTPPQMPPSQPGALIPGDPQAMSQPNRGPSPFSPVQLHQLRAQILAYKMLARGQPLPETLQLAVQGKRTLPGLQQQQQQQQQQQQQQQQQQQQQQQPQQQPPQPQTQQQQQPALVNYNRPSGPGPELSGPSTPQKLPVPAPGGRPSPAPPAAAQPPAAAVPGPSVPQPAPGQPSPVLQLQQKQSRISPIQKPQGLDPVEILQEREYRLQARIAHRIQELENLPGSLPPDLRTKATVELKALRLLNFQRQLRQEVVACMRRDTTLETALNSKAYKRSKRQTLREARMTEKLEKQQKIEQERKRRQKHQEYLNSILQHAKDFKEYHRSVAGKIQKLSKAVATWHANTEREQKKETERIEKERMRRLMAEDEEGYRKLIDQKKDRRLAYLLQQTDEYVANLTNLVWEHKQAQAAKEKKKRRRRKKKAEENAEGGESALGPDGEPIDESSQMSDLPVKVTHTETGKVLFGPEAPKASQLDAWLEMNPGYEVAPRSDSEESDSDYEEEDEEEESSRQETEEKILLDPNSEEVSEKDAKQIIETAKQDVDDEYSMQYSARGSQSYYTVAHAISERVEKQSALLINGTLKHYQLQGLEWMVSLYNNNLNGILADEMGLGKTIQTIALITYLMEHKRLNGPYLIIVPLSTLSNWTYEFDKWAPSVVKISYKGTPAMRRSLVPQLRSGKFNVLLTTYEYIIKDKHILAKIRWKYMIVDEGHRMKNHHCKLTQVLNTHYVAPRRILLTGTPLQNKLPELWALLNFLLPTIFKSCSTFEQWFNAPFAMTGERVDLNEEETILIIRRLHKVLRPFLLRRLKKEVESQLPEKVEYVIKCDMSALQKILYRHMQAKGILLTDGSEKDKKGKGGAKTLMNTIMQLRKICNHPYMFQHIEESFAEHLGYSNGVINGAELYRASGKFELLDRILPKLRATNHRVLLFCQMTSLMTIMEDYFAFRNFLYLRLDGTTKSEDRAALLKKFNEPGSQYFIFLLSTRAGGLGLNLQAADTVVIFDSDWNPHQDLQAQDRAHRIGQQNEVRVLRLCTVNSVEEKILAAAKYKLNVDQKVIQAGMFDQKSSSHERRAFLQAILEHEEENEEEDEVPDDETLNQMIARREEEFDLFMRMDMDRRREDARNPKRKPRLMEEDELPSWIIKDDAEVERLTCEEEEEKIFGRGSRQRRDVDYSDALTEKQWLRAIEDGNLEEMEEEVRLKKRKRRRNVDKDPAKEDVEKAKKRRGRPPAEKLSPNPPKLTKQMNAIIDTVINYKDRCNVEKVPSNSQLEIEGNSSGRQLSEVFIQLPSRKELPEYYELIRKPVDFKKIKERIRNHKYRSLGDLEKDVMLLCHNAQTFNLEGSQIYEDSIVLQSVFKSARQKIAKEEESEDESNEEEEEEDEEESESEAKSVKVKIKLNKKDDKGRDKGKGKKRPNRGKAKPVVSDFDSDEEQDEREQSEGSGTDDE

IC50 [1] [µM]	Emax [1] [%]	BRM Max % Inhibition [2] [%]	IC50 [2] [µM]	Structure (SMILES)
0.1 to 1	> 80	>95	0.1 to 1	Cc1cc(-c2cccc(-c3csc(NC(=O)CNC(=O)c4cc(C5CC5)n(S(C)(=O)=O)c4)n3)c2)cc(C)n1 [Compound 19, 5-cyclopropyl-N-(2-((4-(3-(2,6-dimethylpyridin-4-yl)phenyl)thiazol-2-yl)amino)-2-oxoethyl)-1-(methylsulfonyl)-1H-pyrrole-3-carboxamide]
> 5	< 30	>70	0.1 to 1	Cc1c(C(=O)NCC(=O)Nc2nc(-c3cccc(-c4ccncc4)c3)cs2)cn(S(=O)(=O)C(C)C)c1C [Compound 10, 1-(isopropylsulfonyl)-4,5-dimethyl-N-(2-oxo-2-((4-(3-(pyridin-4-yl)phenyl)thiazol-2-yl)amino)ethyl)-1H-pyrrole-3-carboxamide]
0.1 to 1	> 90	>95	< 0.1	Cc1cc(-c2cccc(-c3csc(NC(=O)CNC(=O)c4cn(S(=O)(=O)C(C)C)c(C)c4C)n3)c2)nc(C)n1 [Compound 14]

Continued, compound first:

Structure (SMILES)	IC50 [1] [µM]	Emax [1] [%]	BRM Max % Inhibition [2] [%]	IC50 [2] [µM]
Cc1c(C(=O)NCC(=O)Nc2nc(-c3cccc(N4C[C@@H](C)O[C@@H](C)C4)c3)cs2)cnn1C(C)(C)C [Compound 42, 1-(tert-butyl)-N-(2-((4-(3-((2R,6S)-2,6-dimethylmorpholino)phenyl)thiazol-2-yl)amino)-2-oxoethyl)-5-methyl-1H-pyrazole-4-carboxamide]	0.1 to 1	–	–	0.1 to 1
Cc1cc(C(=O)NCC(=O)Nc2nc(-c3cccc(-c4ccn(C)n4)c3)cs2)cn1S(=O)(=O)C(C)C [Compound 6, 1-(isopropylsulfonyl)-5-methyl-N-(2-((4-(3-(1-methyl-1H-pyrazol-3-yl)phenyl)thiazol-2-yl)amino)-2-oxoethyl)-1H-pyrrole-3-carboxamide]	1 to 5	> 50	>90	0.1 to 1
CC(C)S(=O)(=O)n1cc(C(=O)NCC(=O)Nc2nc(-c3cc(F)cc(N4C[C@@H](C)O[C@@H](C)C4)c3)cs2)c2ccccc21 [Compound 21, N-(2-((4-(3-((cis)-2,6-dimethylmorpholino)-5-fluorophenyl)thiazol-2-yl)amino)-2-oxoethyl)-1-(isopropylsulfonyl)-1H-indole-3-carboxamide]	> 5	< 30	>90	0.1 to 1
C[C@@H]1CN(c2cccc(-c3csc(NC(=O)CNC(=O)c4cn(S(C)(=O)=O)c5c4CCCC5)n3)c2)C[C@H](C)O1 [Compound 28, N-(2-((4-(3-((cis)-2,6-dimethylmorpholino)phenyl)thiazol-2-yl)amino)-2-oxoethyl)-1-(methylsulfonyl)-4,5,6,7-tetrahydro-1H-indole-3-carboxamide]	1 to 5	> 40	>90	0.1 to 1
Cc1nccc(-c2cccc(-c3csc(NC(=O)CNC(=O)c4cn(S(C)(=O)=O)c5c4CCCC5)n3)n2)n1 [Compound 18, N-(2-((4-(6-(2-methylpyrimidin-4-yl)pyridin-2-yl)thiazol-2-yl)amino)-2-oxoethyl)-1-(methylsulfonyl)-4,5,6,7-tetrahydro-1H-indole-3-carboxamide]	> 5	< 30	>70	0.1 to 1
